# Measured values reported in US5262411A, “Isocephem derivatives, and antimicrobial composition containing the derivatives” (Otsuka Pharmaceutical Co., Ltd., priority 1989, dated 1993).
# Like-named read-outs stand apart in the source and are kept apart here.
# Key:
# Assay type in all cases: cell-based
# [1] = system: S. marcescens IFO 12648; test: MIC against S. marcescens IFO 12648 by the plate diluted method; conditions: Serratia marcescens, IFO12648
# Protocol: (§1) In order to investigate the in vitro activity of the test compounds against various bacteria, the minimal inhibitory concentration (MIC) values were determined by the plate diluted method (See CHEMOTHERAPY, 22, 1126-1128, 1974.)
# (§2) Each strain was adjusted to 1×10^6 cells/ml (O.D. 600 mμ, 0.07 to 0.16).
# [2] = system: A. calcoaceticus Ac-54; test: MIC against A. calcoaceticus Ac-54 by the plate diluted method; conditions: Acinetobacter calcoaceticus, AC54
# Protocol: as §1, §2
# [3] = system: P. aeruginosa E-2; test: MIC against P. aeruginosa E-2 by the plate diluted method; conditions: Pseudomonas aeruginosa, E2
# Protocol: as §1, §2
# [4] = system: E. coli NIHJ JC-2; test: MIC against E. coli NIHJ JC-2 by the plate diluted method; conditions: Escherichia coli, NIHJJC2
# Protocol: as §1, §2
# [5] = system: K. pneumoniae NCTC-9632; test: MIC against K. pneumoniae NCTC-9632 by the plate diluted method; conditions: Klebsiella pneumoniae, NCTC9632
# Protocol: as §1, §2
# [6] = system: P. aeruginosa ATCC-10145; test: MIC against P. aeruginosa ATCC-10145 by the plate diluted method; conditions: Pseudomonas aeruginosa, ATCC10145
# Protocol: as §1, §2
# [7] = system: M. moganii IIDkono; test: MIC against M. moganii IIDkono by the plate diluted method
# Protocol: as §1, §2
# [8] = system: S. aureaus FDA-209P; test: MIC against S. aureaus FDA-209P by the plate diluted method; conditions: Staphylococcus aureus, FDA209P
# Protocol: as §1, §2
# [9] = system: E. coli No. 29; test: MIC against E. coli No. 29 by the plate diluted method; conditions: Escherichia coli, 1×10^6 cells/ml
# Protocol: as §1, §2
# [10] = S. marcescens IFO 12648, 1×10^6 cells/ml, read-out: MIC
# [11] = A. calcoaceticus Ac-54, 1×10^6 cells/ml, read-out: MIC
# [12] = P. aeruginosa E-2, 1×10^6 cells/ml, read-out: MIC
# [13] = K. pneumoniae NCTC-9632, 1×10^6 cells/ml, read-out: MIC
# [14] = P. aeruginosa ATCC-10145, 1×10^6 cells/ml, read-out: MIC
# [15] = M. moganii IIDkono, 1×10^6 cells/ml, read-out: MIC
# [16] = S. aureaus FDA-209P, 1×10^6 cells/ml, read-out: MIC
# [17] = E. coli NIHJ JC-2, 1×10^6 cells/ml, read-out: MIC
Compound,MIC [1],MIC [2],MIC [3],MIC [4],MIC [5],MIC [6],MIC [7],MIC [8],MIC [9],"MIC [1, 10]","MIC [2, 11]","MIC [3, 12]","MIC [5, 13]","MIC [6, 14]","MIC [7, 15]","MIC [8, 16]","MIC [4, 17]"
"CC(C)(O/N=C(\C(=O)N[C@@H]1C(=O)N2C(C(=O)[O-])=C(C[n+]3ccccc3)CS[C@H]12)c1csc(N)n1)C(=O)O [CAZ, Ceftazizime, reference compound]",0.024 µg/mL,1.56 µg/mL,1.56 µg/mL,0.2 µg/mL,0.05 µg/mL,0.78 µg/mL,0.05 µg/mL,3.13 µg/mL,,,,,,,,,
"Cc1nc(SCC2=C(C(=O)O)N3C(=O)[C@@H](NC(=O)/C(=N\OCc4cc(=O)c(O)cn4O)c4csc(N)n4)[C@H]3CS2)sc1CC(=O)O [No. 13, (6S,7S)-7-[(Z)-2-(2-aminothiazol-4-yl)-2-(1,5-dihydroxy-4-pyridone-2-ylmethoxyimino)acetamide]-3-[(5-carboxymethyl-4-methyl-thiazol-2-yl)thiomethyl]isocephem-4-carboxylic acid]",,,,,,,,,0.012 µg/mL,0.012 µg/mL,0.012 µg/mL,0.05 µg/mL,≤ 0.006 µg/mL,0.05 µg/mL,0.024 µg/mL,100 µg/mL,
CC(C)(O/N=C(\C(=O)N[C@@H]1C(=O)N2C(C(=O)[O-])=C(CSc3cc[n+](Cc4cc(=O)c(O)c[nH]4)cc3)CS[C@H]12)c1csc(N)n1)C(=O)O [No. 14],,,,,,,0.05 µg/mL,,0.05 µg/mL,0.024 µg/mL,0.39 µg/mL,0.1 µg/mL,0.012 µg/mL,0.2 µg/mL,,6.25 µg/mL,
"CC(C)(O/N=C(\C(=O)N[C@@H]1C(=O)N2C(C(=O)[O-])=C(CSc3cc[n+](CC(=O)NNC(=O)c4ccc(O)c(O)c4)cc3)CS[C@H]12)c1csc(N)n1)C(=O)O [No. 15, (6R,7R)-7-[(Z)-2-(2-aminothiazol-4-yl)-2-(1-carboxy-1-methylethoxy)imino]acetamide-3-[1-(N-3,4-dihydroxybenzamide)carbamoylmethyl-4-pyridinio]thiomethyl-3-cephem-4-carboxylate]",,,,,,,0.05 µg/mL,3.13 µg/mL,0.012 µg/mL,0.05 µg/mL,0.1 µg/mL,0.05 µg/mL,0.012 µg/mL,0.05 µg/mL,,,
"CC(C)(O/N=C(\C(=O)N[C@@H]1C(=O)N2C(C(=O)[O-])=C(CSc3cc[n+](CC(=O)c4ccc(O)c(O)c4)cc3)CS[C@H]12)c1csc(N)n1)C(=O)O [No. 16, (6R,7R)-7-[(Z)-2-(2-aminothiazol-4-yl)-2-(1-carboxy-1-methylethoxy)iminoacetamide]-3-[[1-[2-(3,4-dihydroxyphenyl)-2-oxo]ethyl]-4-pyridinio]thiomethyl-3-cephem-4-carboxylate]",,,,,,,,1.56 µg/mL,0.012 µg/mL,0.024 µg/mL,0.05 µg/mL,0.1 µg/mL,0.012 µg/mL,0.1 µg/mL,0.05 µg/mL,,
"CO/N=C(\C(=O)N[C@@H]1C(=O)N2C(C(=O)[O-])=C(CSc3cc[n+](CC(=O)c4ccc(O)c(O)c4)cc3)CS[C@H]12)c1csc(N)n1 [No. 17, (6R,7R)-[(Z)-2-(2-aminothiazol-4-yl)-2-methoxyiminoacetamide]-3-[[1-[2-(3,4-dihydroxyphenyl)-2-oxo]ethyl]-4-pyridinio]thiomethyl-3-cephem-4-carboxylat]",,,,,,,,,0.012 µg/mL,0.05 µg/mL,0.1 µg/mL,0.39 µg/mL,0.012 µg/mL,0.2 µg/mL,0.1 µg/mL,0.39 µg/mL,
"Cc1nc(SCC2=C(C(=O)O)N3C(=O)[C@@H](NC(=O)/C(=N\OCc4cc(=O)c(O)cn4O)c4nsc(N)n4)[C@H]3CS2)sc1CC(=O)O [No. 18, (6S,7S)-7-[(Z)-2-(5-amino-1,2,4-thiadiazol-3-yl)-2-(1,5-dihydroxy-4-pyridone-2-ylmethoxyimino)acetamide]-3-(5-carboxymethyl-4-methylthiazol-2-ylthiomethyl)isocephem-4-carboxylic acid]",,,,,,,0.05 µg/mL,,,0.024 µg/mL,0.1 µg/mL,0.1 µg/mL,0.024 µg/mL,0.1 µg/mL,,100 µg/mL,0.1 µg/mL
"Cc1nc(SCC2=C(C(=O)O)N3C(=O)[C@@H](NC(=O)/C(=N\OCc4cc(=O)c(O)cn4O)c4nsc(N)n4)[C@H]3SC2)sc1CC(=O)O [No. 19, (6R,7R)-7-[(Z)-2-(5-amino-1,2,4-thiadiazol-3-yl)-2-(1,5-dihydroxy-4-pyridone-2-ylmethoxyimino)acetamide]-3-(5-carboxymethyl-4-methylthiazol-2-ylthiomethyl)-3-cephem-4-carboxylic acid]",,,,,,,0.05 µg/mL,,,0.024 µg/mL,0.05 µg/mL,0.1 µg/mL,0.024 µg/mL,0.05 µg/mL,,100 µg/mL,0.1 µg/mL
"Nc1nc(/C(=N/OCc2cc(=O)c(O)cn2O)C(=O)N[C@@H]2C(=O)N3C(C(=O)O)=C(CSc4nnnn4CC(=O)O)SC[C@H]23)ns1 [No. 20, (6S,7S)-7-[(Z)-2-(5-amino-1,2,4-thiadiazol-3-yl)-2-(1,5-dihydroxy-4-pyridone-2-ylmethoxyimino)acetamide]-3-(1-carboxymethyl-1H-tetrazol-5-ylthiomethyl)-isocephem-4-carboxylic acid]",,,,,,,,,,0.012 µg/mL,0.05 µg/mL,0.05 µg/mL,0.012 µg/mL,0.05 µg/mL,0.024 µg/mL,100 µg/mL,0.05 µg/mL
"Nc1nc(/C(=N/OCc2cc(=O)c(O)cn2O)C(=O)N[C@@H]2C(=O)N3C(C(=O)O)=C(CSc4nnnn4CC(=O)O)CS[C@H]23)ns1 [No. 21, (6R,7R)-7-[(Z)-2-(5-amino-1,2,4-thiadiazol-3-yl)-2-(1,5-dihydroxy-4-pyridone-2-ylmethoxyimino)acetamide]-3-(1-carboxymethyl-1H-tetrazole-5-ylthiomethyl)-3-cephem-4-carboxylic acid]",,,,,,,,,,0.012 µg/mL,0.05 µg/mL,0.1 µg/mL,0.012 µg/mL,0.1 µg/mL,0.024 µg/mL,100 µg/mL,0.1 µg/mL
"Nc1nc(/C(=N/OCc2cc(=O)c(O)cn2O)C(=O)N[C@@H]2C(=O)N3C(C(=O)O)=C(CSc4snc(O)c4C(=O)O)SC[C@H]23)ns1 [No. 22, (6S,7S)-7-[(Z)-2-(5-amino-1,2,4-thiadiazol-3-yl)-2-(1,5-dihydroxy-4-pyridone-2-ylmethoxyimino)acetamide]-3-(4-carboxy-3-hydroxyisothiazol-5-ylthiomethyl) isocephem-4-carboxylic acid]",,,,,,,0.05 µg/mL,,,0.012 µg/mL,0.1 µg/mL,0.2 µg/mL,0.012 µg/mL,0.1 µg/mL,,100 µg/mL,0.05 µg/mL
"Nc1nc(/C(=N/OCc2cc(=O)c(O)cn2O)C(=O)N[C@@H]2C(=O)N3C(C(=O)O)=C(CSc4snc(O)c4C(=O)O)CS[C@H]23)ns1 [No. 23, (6R,7R)-7-[(Z)-2-(5-amino-1,2,4-thiadiazol-3-yl)-2-(1,5-dihydroxy-4-pyridone-2-ylmethoxyimino)acetamide]-3-(4-carboxy-3-hydroxyiso-thiazol-5-ylthiomethyl)-3-cephem-4-carboxylic acid]",,,,,,,0.05 µg/mL,,,0.024 µg/mL,0.1 µg/mL,0.1 µg/mL,0.024 µg/mL,0.1 µg/mL,,100 µg/mL,0.1 µg/mL
"Nc1nc(/C(=N/OCc2cc(=O)c(O)cn2O)C(=O)N[C@@H]2C(=O)N3C(C(=O)[O-])=C(CSc4cc[n+](CC(=O)O)cc4)SC[C@H]23)ns1 [No. 24, (6S,7S)-7-[(Z)-2-(5-amino-1,2,4-thiadiazol-3-yl)-2-(1,5-dihydroxy-4-pyridone-2-ylmethoxyimino)acetamide]-3-(1-carboxymethylpyridinium-4-ylthiomethyl)isocephem-4-carboxylate]",,,,,,,,,,0.024 µg/mL,0.39 µg/mL,0.2 µg/mL,0.024 µg/mL,0.1 µg/mL,0.024 µg/mL,12.5 µg/mL,0.1 µg/mL
"Nc1nc(/C(=N/OCc2cc(=O)c(O)cn2O)C(=O)N[C@@H]2C(=O)N3C(C(=O)[O-])=C(CSc4cc[n+](CC(=O)O)cc4)CS[C@H]23)ns1 [No. 25, (6R,7R)-7-[(Z)-2-(5-amino-1,2,4-thiadiazol-3-yl)-2-(1,5-dihydroxy-4-pyridone-2-ylmethoxyimino)acetamide]-3-(1-carboxymethylpyridinium-4-ylthiomethyl)-3-cephem-4-carboxylate]",,,,0.2 µg/mL,,,0.05 µg/mL,,,0.024 µg/mL,0.39 µg/mL,0.2 µg/mL,0.024 µg/mL,0.1 µg/mL,,6.25 µg/mL,
